Experimental data published in US6624143B1, “Calcium salts of lipopeptide antibiotics, method for producing same and their use” (Aventis Pharma Deutschland GmbH, priority 1998, dated 2003).
Where a name gives a salt, the structure may show the parent alone. Read-outs that look alike come from different tables or passages of the source.

Columns and labels:
Type in all cases: cell-based
[1] = system: Enteroc. gallinarium, HM8; test: serial dilution test, MIC; settings: vanR, tetR
Excerpt: (§1) Table 3: In-vitro activity of the A1437D Ca salt against Gram-positive bacteria in the serial dilution test indicated as the minimum inhibitory concentration (MIC)

Enteroc. faecalis, DU18 = test: serial dilution test, MIC; settings: tetR, novR
Excerpt: as §1

Enteroc. faecium, HM3 = test: serial dilution test, MIC; settings: teiR, vanR, eryR
Excerpt: as §1

[2] = system: Staph. aureus, ATCC 13709; test: serial dilution test, MIC; settings: Staphylococcus aureus, ATCC13709
Excerpt: as §1

Staph. aureus, 11DU5 = test: serial dilution test, MIC; settings: Staphylococcus aureus, novR, tetR
Excerpt: as §1

Enteroc. faecalis, UC5 = test: serial dilution test, MIC; settings: ATCC 29212 novR
Excerpt: as §1

Staph. aureus, 11CB20 = test: serial dilution test, MIC; settings: Staphylococcus aureus, oxaR, eryR, tetR
Excerpt: as §1

[3] = system: Streptoc. pneumoniae 30B12; test: serial dilution test, MIC; settings: eryR
Excerpt: as §1

Enteroc. faecalis, HM9 = test: serial dilution test, MIC; settings: novR, vanR, eryR
Excerpt: as §1

Streptoc. milleri, GR12 = test: serial dilution test, MIC; settings: S
Excerpt: as §1

Enteroc. faecium, IP2 = test: serial dilution test, MIC; settings: teiR, vanR, eryR, tetR
Excerpt: as §1

Staphyloc. aureus, 11HT3 = test: serial dilution test, MIC; settings: S
Excerpt: as §1

Streptoc. gr. G, GOCB2 = test: serial dilution test, MIC; settings: tetR, rifR, novR
Excerpt: as §1

[4] = system: Staphyloc. coagul. negativ; test: serial dilution test, MIC; settings: oflR, oxaR, tetR
Excerpt: as §1

Enteroc. faecium, HT12 = test: serial dilution test, MIC; settings: teiR, vanR, eryR, tetR
Excerpt: as §1

Staph. epidermidis, GO20 = test: serial dilution test, MIC; settings: Staphylococcus epidermidis, tetR
Excerpt: as §1

[5] = system: Streptoc. pyogenes, A1SJ1; test: serial dilution test, MIC; settings: eryR
Excerpt: as §1

Staph. aureus, 11HT1 = test: serial dilution test, MIC; settings: Staphylococcus aureus, novR
Excerpt: as §1

Enteroc. faecium, AP9 = test: serial dilution test, MIC; settings: vanR, teiR
Excerpt: as §1

Staph. aureus, 11GO64 = test: serial dilution test, MIC; settings: Staphylococcus aureus, oflR, oxaR, eryR, novR
Excerpt: as §1

Staph. epidermidis, GO42 = test: serial dilution test, MIC; settings: Staphylococcus epidermidis, oxaR
Excerpt: as §1

Streptoc. mitis, GR16 = test: serial dilution test, MIC; settings: eryR
Excerpt: as §1

[6] = system: Streptoc. pyogenes, A1F16; test: serial dilution test, MIC; settings: eryR
Excerpt: as §1

monkey blood = settings: rhesus monkey, 3 h
Experimental: For the measurement of hemolytic activity, freshly taken, venous human, Rhesus monkey or beagle dog blood is used. The blood is collected in heparinized tubes and distributed in aliquots of 200 μl into 12 polyethylene tubes. One aliquot is treated with 200 μl of distilled water and used as a 100% standard, another is mixed with 200 μl of physiological saline solution (0.9% NaCl). 200 μl each of substance dilutions in physiological saline solution to 1600, 800, 400, 200, 100, 50, 25, 12.5, 6.25 and 3.125 mg/l are distributed into the other tubes. All tubes are carefully swung and then incubated for 3 hours at 37° C. The 100% standard is then made up with 5 ml of distilled water, the other tubes with 5 ml each of physiological saline solution, and centrifuged at 700 g for 5 minutes.
The hemolysis is determined by measurement of the absorption of the supernatant in a spectrophotometer at a wavelength of 540 nm. The absorption of the standard with complete hemolysis is set at 100%. The absorption of the test preparation dilutions and of the 0% standard are measured and indicated as a percentage of the maximally inducible hemolysis.

CC(C)CCCCCCC/C=C\CC(=O)N[C@@H](CC(N)=O)C(=O)N[C@@H]1C(=O)N2CCCC[C@@H]2C(=O)N[C@@H]([C@H](C)C(=O)O)C(=O)N[C@@H](CC(=O)O)C(=O)NCC(=O)N[C@@H](CC(=O)O)C(=O)NCC(=O)N[C@H]([C@@H](C)N)C(=O)N[C@@H](C(C)C)C(=O)N2CCC[C@H]2C(=O)N[C@@H]1C [A1437D Ca salt]
MIC [1]: 0.15 µg/mL | MIC (Enteroc. faecalis, DU18): 0.6 µg/mL | MIC (Enteroc. faecium, HM3): 0.6 µg/mL | MIC [2]: 0.6 µg/mL | MIC (Staph. aureus, 11DU5): 0.08 µg/mL | MIC (Enteroc. faecalis, UC5): 2.5 µg/mL | MIC (Staph. aureus, 11CB20): 0.6 µg/mL | MIC [3]: 0.3 µg/mL | MIC (Enteroc. faecalis, HM9): 2.5 µg/mL | MIC (Streptoc. milleri, GR12): 0.3 µg/mL | MIC (Enteroc. faecium, IP2): 0.6 µg/mL | MIC (Staphyloc. aureus, 11HT3): 0.04 µg/mL | MIC (Streptoc. gr. G, GOCB2): 0.3 µg/mL | MIC [4]: 0.3 µg/mL | MIC (Enteroc. faecium, HT12): 0.6 µg/mL | MIC (Staph. epidermidis, GO20): 0.3 µg/mL | MIC [5]: 0.6 µg/mL | MIC (Staph. aureus, 11HT1): 0.15 µg/mL | MIC (Enteroc. faecium, AP9): 0.6 µg/mL | MIC (Staph. aureus, 11GO64): 0.6 µg/mL | MIC (Staph. epidermidis, GO42): 0.3 µg/mL | MIC (Streptoc. mitis, GR16): 0.3 µg/mL | MIC [6]: 0.6 µg/mL | in vitro hemolysis, percentage of the maximally inducible hemolysis (monkey blood; 12.5 mg/l): 0% | in vitro hemolysis, percentage of the maximally inducible hemolysis (monkey blood; 25 mg/l): 0% | in vitro hemolysis, percentage of the maximally inducible hemolysis (monkey blood; 50 mg/l): 0% | in vitro hemolysis, percentage of the maximally inducible hemolysis (monkey blood; 100 mg/l): 3% | in vitro hemolysis, percentage of the maximally inducible hemolysis (monkey blood; 200 mg/l): 6% | in vitro hemolysis, percentage of the maximally inducible hemolysis (monkey blood; 400 mg/l): 9% | in vitro hemolysis, percentage of the maximally inducible hemolysis (monkey blood; 800 mg/l): 15% | in vitro hemolysis, percentage of the maximally inducible hemolysis (monkey blood; 1600 mg/l): 19%
